Measured values from paper PMC7481197, “Uncovering the cytochrome P450-catalyzed methylenedioxy bridge formation in streptovaricins biosynthesis” (Nature Communications, 2020).

Assays:
Format in all cases: biochemical
StvP2 [1] = target: T1, StvP2 (Streptomyces spectabilis, UniProt A0A286SBY7); experiment: HPLC-DAD product formation, modified Hill equation fit; settings: spinach Fdx/FdR, 4 mM NADPH, 50 mM Tris-HCl pH 7.5, 28 °C, 4 min; substrate inhibition, descending arm
T1 construct: N-terminal 6xHis tag, eight amino acids between tag and StvP2 removed, expressed in E. coli C43(DE3); heme-containing (Cys349 ligand); one molecule per asymmetric unit when substrate-free

StvP2 [2] = target: T1, StvP2; experiment: as above; settings: spinach Fdx/FdR, 4 mM NADPH, 50 mM Tris-HCl pH 7.5, 28 °C, 4 min; ascending arm of substrate-inhibition curve; read-out: Ks
StvM1 = target: T2, StvM1 (Streptomyces spectabilis, UniProt A0A286SC47); experiment: LC-ESI-HRMS conversion of […] to […]; settings: methyl donor; 100 μM damavaricin C, 50 mM Tris-HCl pH 7.5, 28 °C, 3 h
T2 construct: N-terminal 6xHis tag, pET28a(+) NdeI/EcoRI, expressed in E. coli BL21(DE3)
T2 sequence (A0A286SC47 1-202): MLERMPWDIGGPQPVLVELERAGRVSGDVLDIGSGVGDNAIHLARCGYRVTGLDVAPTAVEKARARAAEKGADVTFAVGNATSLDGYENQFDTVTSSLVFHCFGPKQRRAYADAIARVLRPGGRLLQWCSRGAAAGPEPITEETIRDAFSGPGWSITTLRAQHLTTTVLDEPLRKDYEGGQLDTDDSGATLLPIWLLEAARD

T1 sequence (A0A286SBY7 entry or part of it): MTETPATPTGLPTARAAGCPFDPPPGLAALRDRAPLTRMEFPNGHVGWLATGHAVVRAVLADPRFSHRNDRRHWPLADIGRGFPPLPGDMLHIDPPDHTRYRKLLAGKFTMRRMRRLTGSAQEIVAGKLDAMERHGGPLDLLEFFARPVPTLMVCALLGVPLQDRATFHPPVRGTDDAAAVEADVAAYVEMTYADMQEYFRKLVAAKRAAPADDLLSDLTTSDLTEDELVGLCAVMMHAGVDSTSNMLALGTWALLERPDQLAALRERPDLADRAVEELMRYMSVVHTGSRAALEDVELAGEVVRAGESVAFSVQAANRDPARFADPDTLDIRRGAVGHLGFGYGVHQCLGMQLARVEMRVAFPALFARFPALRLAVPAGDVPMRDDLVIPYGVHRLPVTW

6-methoxy-streptovaricin H [compound 4]
Ki (StvP2 [1]): 399.35 ± 122.10 µM
Km (StvP2 [2]): 95.6 ± 30.8 µM

COC(=O)[C@@H]1[C@H](O)[C@H](C)[C@H](O)[C@H](C)/C=C\C=C(/C)C(=O)Nc2c(C)c(OC(C)=O)c3c(c(OC)c(C)c(O)c3c2O)C(=O)/C(C)=C/[C@@](C)(O)[C@H](O)[C@@H](C)[C@H]1O [compound 2, 6-methoxy-streptovaricin C]
Ki (StvP2 [1]): 367.30 ± 128.57 µM
Km (StvP2 [2]): 110 ± 46.2 µM

C[S+](CC[C@H](N)C(=O)O)C[C@H]1O[C@@H](n2cnc3c(N)ncnc32)[C@H](O)[C@@H]1O (stereo partly shown) [SAM]
LC-ESI-HRMS conversion of 7 to 8 (StvM1): using SAM as methyl donor

6-methoxy-streptovaricin D [compound 6]
Ki (StvP2 [1]): 288.50 ± 122.60 µM
Km (StvP2 [2]): 67.4 ± 28.4 µM
